PubChem BioAssay AID463199 (Broad Institute, 2010)
Calls of active or inactive are those of the source.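 How the source made its calls: active means AC50, the dose giving half-maximal effect, exceeds a fixed cutoff for a compound that rescues yeast growth under heat; inactive means the rest, inconclusive results apart.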

System: S. cerevisiae Burl-1 ts mutant growth, BacTiter-Glo, 38.5C 24 h
Assay: restored growth of temperature-sensitive Burl-1 yeast – whole organism, S. cerevisiae, Burl-1 ts mutant, luminescence, counter-screen for SUMOylation pathway inhibitor project, dose response (AID 463199)

SMILES | AC50
COCCCNS(=O)(=O)c1ccc(Oc2ncc(C(F)(F)F)cc2Cl)cc1 | > 42 µM (inactive)
Cc1ccc(NC(=S)NNC(=O)c2ccc(N3CCOCC3)c([N+](=O)[O-])c2)cc1C | > 42 µM (inactive)
COc1cc([N+](=O)[O-])cc(/C=N/NC(=O)c2cc(C)nc3ccccc23)c1O | > 42 µM (inactive)
CS(=O)(=O)N(CC(=O)N1CCCC1)c1cccc(Cl)c1Cl | > 42 µM (inactive)
Clc1ccccc1C(c1ccccc1)(c1ccccc1)n1ccnc1 | > 42 µM (inactive)
CCn1c(CSCc2ccc(F)cc2)nnc1SCC(=O)NCc1ccccc1 | > 42 µM (inactive)
O=C(COc1ncnc2c(Cl)cc(Cl)cc12)NCCC1=CCCCC1 | > 42 µM (inactive)
COc1ccc(N(C(=O)c2ccncc2)S(=O)(=O)c2ccc(F)cc2)cc1 | > 42 µM (inactive)
CN1C(=O)c2cccc3c(Cl)ccc(c23)C1=O | > 42 µM (inactive)
O=C(CSc1nnc(CNC(=O)c2ccccc2)o1)NCc1ccco1 | > 42 µM (inactive)
O=S(=O)(Nn1c(O)c(C=C2N=c3ccccc3=N2)sc1=S)c1ccccc1 | > 42 µM (inactive)
CC(C)(C)CC(=O)Nc1cc(S(=O)(=O)N2CCOCC2)ccc1N1CCCC1 | > 42 µM (inactive)
Cc1n[nH]c(C)c1S(=O)(=O)N(CC(=O)NC1CCCC1)c1ccc(C(C)C)cc1 | 38.7 µM
O=C(CCNC(=O)c1ccccc1)Nc1cccnc1 | > 42 µM (inactive)
COc1nc(OC)nc(N2CCC(C(=O)NC3CCCCCC3)CC2)n1 | > 42 µM (inactive)
CC(C)NC(=O)NC(=O)COC(=O)CCCSc1nc2ccccc2s1 | > 42 µM (inactive)
COc1ccccc1CNC(=O)C1CCC(=O)N1C(C)C (configuration not stated) | > 42 µM (inactive)
CCOc1cc(S(=O)(=O)NCc2ccc3c(c2)OCO3)c(C)cc1C | > 42 µM (inactive)
O=C(Nc1ccccc1)N1CCN(CCc2ccccc2)CC1 | > 42 µM (inactive)
O=C(CSc1ncn[nH]1)Nc1cccc(S(=O)(=O)N2CCCCCC2)c1 | > 42 µM (inactive)
CC(=O)N1CCc2cc(S(=O)(=O)NCCC3=CCCCC3)ccc21 | > 42 µM (inactive)
O=c1c2ccccc2nc(SCc2nnc(-c3ccccc3)o2)n1-c1ccc(F)cc1F | > 42 µM (inactive)
CN(C)CC/C=C1/c2cc(F)ccc2Sc2ccc(Cl)cc21 | > 42 µM (inactive)
Cc1ccc(S(=O)(=O)n2cccc2C)cc1 | > 42 µM (inactive)
Cc1ccc(N(C(=O)Cn2nnc3ccccc32)C(C(=O)NC2CCCCC2)c2cn(C)nc2C)cc1 (configuration not stated) | > 21 µM (inactive)
CC(C)(C)NC(=O)C1Cc2ccccc2CN1S(=O)(=O)c1ccc(F)cc1 (configuration not stated) | > 42 µM (inactive)

SMILES | AC50
O=c1c2ccccc2ncn1Cc1ccc(Cl)cc1 | > 42 µM (inactive)
CCn1c(SCc2nc3ccccc3s2)nnc1-c1ccccc1 | > 42 µM (inactive)
COc1ccc(C(=O)N/C(=C\c2cn(C)c3ccccc23)C(=O)OCCN(C)C)cc1 | > 42 µM (inactive)
Cc1ccc(N2CN(CCc3ccccc3)CNC2=S)cc1 | > 42 µM (inactive)
Clc1ccc(N=c2ssnc2Cl)nc1 | > 42 µM (inactive)
CS(=O)(=O)NCc1ccc(C(=O)NC2CCCCC2)cc1 | > 42 µM (inactive)
Cc1ccc(S(=O)(=O)N2CCCC2C(=O)NCCc2ccccc2)cc1 (configuration not stated) | > 42 µM (inactive)
CCn1cc(C(=O)N2CCN(c3ccc(OC)cc3)CC2)c(=O)c2cc(S(=O)(=O)N3CCOCC3)ccc21 | > 42 µM (inactive)
CCOc1cc(-c2ccccc2)nc(N)n1 | > 42 µM (inactive)
COc1ccc(N2CCN(C(c3cccs3)C(C)NS(C)(=O)=O)CC2)cc1 (configuration not stated) | > 42 µM (inactive)
Oc1cccc2ccc(/C=C/c3ccccc3Br)nc12 | > 42 µM (inactive)
CN(C(=O)COc1cc(=O)n(C)c2ccccc12)c1ccc(Cl)cc1 | > 42 µM (inactive)
Cc1ccc(NC(=S)N2CCN(Cc3ccc4c(c3)OCO4)CC2)c(C)c1 | > 42 µM (inactive)
N#Cc1cc2c(nc1SCc1cccnc1)CCC2 | > 42 µM (inactive)
COc1ccc(OCC(=O)Nc2ccc(C)cc2)cc1 | > 42 µM (inactive)
CCn1cc(C(=O)NCc2ccccn2)c(=O)c2cc(F)c(N3CCN(C)CC3)cc21 | > 42 µM (inactive)
CC1=C(C(=O)OCc2ccccc2)C(c2cccc(F)c2)NC(=O)N1 (configuration not stated) | > 42 µM (inactive)
N/C(=N\NC(=O)c1sccc1OCc1ccc(Cl)cc1Cl)c1ccccn1 | > 42 µM (inactive)
Cc1cc(Cl)c2oc(C(=O)NC3CCC(O)CC3)c(C)c2c1 (configuration not stated) | > 42 µM (inactive)
CCOc1ccccc1C(=O)N(Cc1cccs1)C1CCS(=O)(=O)C1 (configuration not stated) | > 42 µM (inactive)
O=C(NC1CCCC1)C(c1cccs1)N(C(=O)c1ccno1)c1ccccc1 (configuration not stated) | > 42 µM (inactive)
O=C(CCNC(=O)c1ccc(Br)cc1)NCc1ccccc1F | > 42 µM (inactive)
O=C(CSc1nccc(=O)[nH]1)c1cc2ccccc2o1 | > 42 µM (inactive)
O=C(N/N=C/c1ccccc1)c1[nH]c2ccc(Br)cc2c1-c1ccccc1 | > 42 µM (inactive)
Cc1ccc(-c2csc(C3=C(O)CN(NC(=O)c4ccco4)C3=N)n2)cc1 | > 42 µM (inactive)
O=C(c1ccccc1F)N1CCCc2ccccc21 | > 42 µM (inactive)

SMILES | AC50
Cc1ccc(S(=O)(=O)Cc2ccc(C(=O)N3CCN(c4ccccn4)CC3)o2)cc1 | > 42 µM (inactive)
C=CCN1C(=O)/C(=C\c2ccc(C)cc2)N=C1SCC(=O)NCCC | > 42 µM (inactive)
N#CCSc1nc2c(c(C3CC=CCC3)c1C#N)CCC2 (configuration not stated) | > 42 µM (inactive)
CC(C)CCn1c(C(C)O)nc2ccccc21 (configuration not stated) | > 42 µM (inactive)
O=C(NC1CCCCC1)c1ccc2snnc2c1 | > 42 µM (inactive)
Cc1ccc(N(CC(=O)NC2CCCC2)C(=O)CCC(=O)Nc2ccccn2)cc1C | > 42 µM (inactive)
CC(C)(C)NC(=O)CN(C(=O)CCC(=O)Nc1nccs1)c1ccc2c(c1)OCCO2 | > 42 µM (inactive)
Cc1[nH]oc(=O)c1N=Nc1c(Cl)cccc1Cl | > 42 µM (inactive)
O=C(NNC(=O)C12CC3CC(CC(C3)C1)C2)c1ccccn1 | > 42 µM (inactive)
O=C(N1CCOCC1)C1(S(=O)(=O)c2ccccc2)CC=CC1 | > 42 µM (inactive)
N#C/C(=C\c1c(N(Cc2ccccc2)Cc2ccccc2)nc2ccccn2c1=O)C(N)=O | > 42 µM (inactive)
COc1ccc(NC2CC(=O)N(C(C)C)C2=O)cc1 (configuration not stated) | > 42 µM (inactive)
O=C(c1cc(-c2ccc(Cl)cc2)n(-c2ccc(Cl)cc2)n1)N1CCOCC1 | > 42 µM (inactive)
CC(C)(C)n1cnc2cc(NC(=O)c3ccc(Cl)cc3)ccc21 | > 42 µM (inactive)
N=c1sccn1CC(=O)Nc1cccc(S(N)(=O)=O)c1 | > 42 µM (inactive)
CC1(C)CC(=O)C(C=Nc2ccc(O)c(N=CC3=C(O)CC(C)(C)CC3=O)c2)=C(O)C1 | > 42 µM (inactive)
CCOC(=O)C1ON2CCCCC2C1(O)C(F)(F)F (configuration not stated) | > 42 µM (inactive)
CC1CCN(CCCCOc2cccc(Br)c2)CC1 | > 42 µM (inactive)
CCCCCCCCCCOC(=O)Cn1c(COc2ccc(OC)cc2)[n+](C)c2ccccc21 | > 42 µM (inactive)
CCN(CC)c1ccc(C=C2C(=O)OC(c3ccccc3)OC2=O)cc1 (configuration not stated) | > 42 µM (inactive)
O=C(NNC(=O)c1csc(N2CCOCC2)n1)c1ccc(Cl)nc1 | > 42 µM (inactive)
CC[n+]1c(/C=C(\C)SC)sc2ccccc21 | > 42 µM (inactive)
Cc1nc(SCC(=O)O)n[nH]1 | > 42 µM (inactive)
CN1CCN(CC(=O)N2c3ccccc3C(=O)Nc3cccnc32)CC1 | > 42 µM (inactive)
CCN1CCN(CC(=O)N2N=CCC2c2ccccc2)CC1 (configuration not stated) | > 42 µM (inactive)
O=C(NC1CCCCC1)C(c1ccncc1)N(Cc1ccc2c(c1)OCO2)C(=O)C(F)(F)F (configuration not stated) | > 42 µM (inactive)

SMILES | AC50
Oc1c(Cl)cc(Cl)cc1/C=N/c1nc(-c2ccc(Cl)cc2)cs1 | > 42 µM (inactive)
CC1=C(C#N)S(=O)(=O)C(C#N)C(c2ccccc2)C1 (configuration not stated) | > 42 µM (inactive)
COC(=O)c1ccc2[nH]c(C(C)(C)O)c(C)c2c1 | > 42 µM (inactive)
CCOCCCNCc1ccc(OCc2ccc(F)cc2)c(OC)c1 | > 42 µM (inactive)
COc1ccc(-n2c(C)cc(C(=O)CN3C(=O)NC4(CCCc5sccc54)C3=O)c2C)cc1 (configuration not stated) | > 42 µM (inactive)
Clc1ccc(CNCc2cccs2)cc1Cl | > 42 µM (inactive)
Cc1cccc(NC(=O)CCc2ccccc2)c1 | > 42 µM (inactive)
CCOC(=O)Cn1c(=O)oc2cc(S(=O)(=O)NC(C)(C)CC)ccc21 | > 42 µM (inactive)
C=C(C)C(=O)Nc1cccnc1Oc1ccc(F)cc1F | > 42 µM (inactive)
O=C(NCc1ccccn1)C1CC(c2ccc(Cl)c(Cl)c2)=NO1 (configuration not stated) | > 42 µM (inactive)
O=C(C1CCN(S(=O)(=O)N2CCC3(CC2)OCCO3)CC1)N1CCC(Cc2ccccc2)CC1 | > 42 µM (inactive)
CCCCn1c(N)c(N(CCOC)C(=O)c2cnccn2)c(=O)[nH]c1=O | > 42 µM (inactive)
Cc1cccc(OCCN2CSC(=S)N(C)C2)c1 | 31.6 µM
O=c1nc2ccc(Cl)cn2c2ccc(S(=O)(=O)N3CCOCC3)cc12 | > 42 µM (inactive)
COc1ccc(C(=O)N2CCN(c3ccc(NC(=O)c4cccnc4)cc3)CC2)cc1 | > 42 µM (inactive)
O=C(COC(=O)COc1ccccc1Cl)Nc1ccccc1OC(F)F | > 42 µM (inactive)
CCOC(=O)c1oc2c(c1C)C(=O)CCC2 | > 42 µM (inactive)
COc1cc(C(C2=C(O)CC(C)(C)CC2=O)C2C(=O)CC(C)(C)CC2=O)cc(OC)c1OC (configuration not stated) | > 42 µM (inactive)
COC(=O)CCCC(=O)NCC1(N(C)Cc2ccccc2)Cc2ccccc2C1 | > 42 µM (inactive)
NC(=O)C1=C[C@@H](c2ccc(Br)cc2)C[C@@H](OCCCCO)O1 | > 42 µM (inactive)
CN(C)CCNC(=O)c1c(O)c2c([nH]c1=O)CCCC2 | > 42 µM (inactive)
N#C/C(=N\Nc1cccc(F)c1)C(=N)N1CCCCCC1 | > 42 µM (inactive)
COc1ccc(Nc2oc(-c3cccs3)nc2C#N)cc1 | > 42 µM (inactive)
NN1C(=O)NC(c2ccccc2)(c2ccccc2)C1=O | > 42 µM (inactive)
